Source: patent publication US12108756B2, “Photodynamic method of inhibiting growth of a microbial plant pathogen” (priority 2019, dated 2024)

How the values were obtained:
E. coli = E. coli kill with photosensitizers with and without copper under broad-spectrum Reptile Light; type: cell-based, Escherichia coli; conditions: for effectiveness as photosensitizer: as shown in Example 2, under the test conditions; for log reduction: Reptile Light 8,520 Lux (26 W/m2)
Method: In this example we compare different photosensitizers (50 μM in water) in combination with and without copper sulfate. An agricultural adjuvant sticker spreader, Silwet® L-77 was also included at a 0.0125% concentration. The conditions experimental were the same as Example 1: E. coli as the test organism, using copper sulfate at 10 ppm, and a light exposure time of 30 minutes. However, in this test series we used a light source that reproduced the spectrum of sunlight, including UV. It is used to in terrariums for housing reptiles, some of which require a UV component in their light. It is referred to here as the Reptile Light (Zoo Med 2019).
In this example we also used the Reptile Light. In these tests the light intensity was 8,520 Lux, or 26 W/m2 (for comparison, this could be full daylight on a cloudy day, or a common light level in a greenhouse). […] Silwet (see Helena 2019) is an agricultural nonionic organosilicone surfactant adjuvant wetting and spreading agent commonly used with pesticides, also commonly known as a sticker spreader).
In this example we tested a commercial algicide product, Cutrine®, which contains copper ethanolamine (from the product label: Copper Ethanolamine Complex, Mixed (Mono CAS #14215-52-2 and Tri CAS #82027-59-6) 27.9%; OTHER INGREDIENTS 72.1% TOTAL 100.0% Metallic copper equivalent, 9%; Contains 0.909 lbs. of elemental copper per gallon) (EPA Reg. No. 8959-10). Copper ethanolamine is effective in keeping the copper salt in solution at neutral pH. The tests were done as above, under the reptile light for 30 minutes.
The above tests using CuSO4 at 10 ppm is equivalent to 3.98 ppm copper. We initially tested Cutrine® at a low and a high concentration, where the low concentration is adjusted to have approximately 3.98 ppm copper as before, and the high concentration is 39.8 ppm copper (same copper concentration as 100 ppm CuSO4). We tested them with and without 18 ppm riboflavin. Again, tests were run in triplicate.

[1] = tested on: Escherichia coli (E. coli) bacteria (ATCC 25922); experiment: Photodynamic treatment of E. coli under blue LED light; colonies plated and reduction vs untreated control; type: cell-based; conditions: for % reduction: converted from log kill
Method: Tests were carried out with Escherichia coli (E. coli) bacteria (ATCC 25922) in which the organisms were exposed to varying test conditions. The light source for photoactivation was a blue LED light (HIGROW 2019) that was placed 7 cm from the container containing the E. coli. The photoactivator was riboflavin (Aldrich R7649, lot VVXBB4048V, purity 98.6%) at a concentration of 18 ppm. Copper sulfate was used at a concentration of 10 ppm (aqueous solution). The tests included a wetting agent Silwet® L-77 at a concentration of 0.0125%. Silwet® L-77 is a product of Helena Agri-Enterprises, LLC of Collierville, TN, and is a nonionic organosilicone surfactant co-polymer that has enhanced wetting and spreading characteristics when used in aqueous sprays. Silwet® L-77 has a CAS Registry Number of 27306-78-1. Each test was carried out for the prescribed time, which varied from 5 minutes to 30 minutes. At the end of the exposure time the bacteria were diluted and plated so that the colonies could be enumerated and the corresponding reduction determined by comparison with the untreated control.
We also carried out tests to evaluate the effect of light intensity. These tests used 10 ppm copper sulfate and 18 ppm riboflavin (aqueous solution) in a 15-minute exposure under the blue light, using neutral density filters to decrease the light intensity. The full light intensity at the 450 nm to 460 nm range was 353 W/m^2.

[2] = tested on: Xanthomonas hortorum pv. pelargonii; experiment: Reduction of Xanthomonas hortorum pv. pelargonii leaf spots on geranium plants in greenhouse; type: in vivo; conditions: single spray 24 hours before inoculation, leaf spots counted two weeks after inoculation
[3] = photosensitizer alone, 50 μM in water, Reptile Light, 30 minutes
[4] = photosensitizer alone, 50 μM in water, Reptile Light, 30 minutes, median (EY, RMP: average)
[5] = 10 ppm alone, blue light, 30 minutes
[6] = 10 ppm + Silwet (0.0125%), 30 minutes
[7] = 18 ppm alone, blue light, 30 minutes

Compound	effectiveness as photosensitizer (E. coli)	% kill (E. coli; [3]) [%]	Log kill (E. coli; [4]) [Log]	log reduction (E. coli; [6]) [log]	also measured
O=C1OC2(c3ccccc31)c1cc(I)c(O)c(I)c1Oc1c2cc(I)c(O)c1I [ER, erythrosine]	effective	25.88	0.13		
O=C1OC2(c3cc(I)c(O)c(I)c3Oc3c2cc(I)c(O)c3I)c2c(Cl)c(Cl)c(Cl)c(Cl)c21 [RB, Rose Bengal]	effective	30.81	0.16		
O=S(=O)([O-])[O-].[Cu+2] [copper sulfate]				0.13	log kill [1, 5]: 0.954 log; % reduction [1, 5]: 88.88%; log kill ([1]; 10 ppm, in the dark, 30 minutes): 0.226 log; % kill (E. coli; 10 ppm alone, reptile lamp, 30 minutes): 26.04%; Log kill (E. coli; 10 ppm alone, reptile lamp, 30 minutes, median value): 0.131 Log; log reduction (E. coli; 40 ppm, 30 minutes): 0.13 log
Cc1cc2nc3c(=O)[nH]c(=O)nc-3n(C[C@H](O)[C@H](O)[C@H](O)CO)c2cc1C [riboflavin]	most effective	23.26	0.115	0.15	log kill [1, 7]: 0.83 log; % reduction [1, 7]: 85.208%; log kill ([1]; 18 ppm, in the dark): did not produce any measurable kill; Log kill (E. coli; 18 ppm alone, reptile lamp, 30 minutes): 0.115 Log; log reduction (E. coli; 50 ppm, 1 hour): 1.6 log; log kill (E. coli; riboflavin alone, reptile light, 30 minutes, from previous test data): < 1 log; effectiveness against leaf spots [2]: only partially effective
Eosin Y [EY]	effective	6.46	0.87		
riboflavin monophosphate [RMP]		3.17	0.042		
